Results: paper PMC3657136, “An antibacterial from Hypericum acmosepalum inhibits ATP-dependent MurE ligase from Mycobacterium tuberculosis” (International Journal of Antimicrobial Agents, 2012)

Biological target: T1, ATP-dependent MurE ligase (Mycobacterium tuberculosis, UniProt P9WJL3)
T1 sequence (P9WJL3 1-535): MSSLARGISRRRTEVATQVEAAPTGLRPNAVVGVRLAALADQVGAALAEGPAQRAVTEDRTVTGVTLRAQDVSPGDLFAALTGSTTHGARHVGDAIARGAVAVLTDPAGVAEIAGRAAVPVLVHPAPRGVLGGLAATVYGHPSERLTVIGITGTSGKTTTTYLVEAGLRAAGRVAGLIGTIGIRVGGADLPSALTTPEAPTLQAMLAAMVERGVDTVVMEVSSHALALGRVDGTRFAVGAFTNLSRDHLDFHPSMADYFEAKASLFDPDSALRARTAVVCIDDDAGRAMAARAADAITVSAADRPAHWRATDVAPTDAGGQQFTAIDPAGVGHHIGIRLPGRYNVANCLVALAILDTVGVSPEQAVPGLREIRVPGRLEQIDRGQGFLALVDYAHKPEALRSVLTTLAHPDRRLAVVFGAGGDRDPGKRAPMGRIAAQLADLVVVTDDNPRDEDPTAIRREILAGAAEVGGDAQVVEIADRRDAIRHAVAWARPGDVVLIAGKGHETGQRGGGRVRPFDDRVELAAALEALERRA
Experiment: biochemical

C=CC(C)(C)c1c(OC)oc(-c2ccccc2)cc1=O [compound 2, hyperenone A] gave an IC50 of 320 µM.
